Results published in patent publication US20240358721A1, “GASDERMIN-D INHIBITORS AND USES THEREOF FOR TREATING PULMONARY VASO-OCCLUSION” (UNIVERSITY OF PITTSBURGH-OF THE COMMONWEALTH SYSTEM OF …, priority 2021, published 2024).
Entries after “also recorded” stand apart in the source; their conditions may differ.

Test system: SCD mice
Assay: qFILM assessment of pulmonary vaso-occlusion in SCD mice IV administered oxy-Hb
Assay type: in vivo, mouse
Details: LDC7559 10 mg/kg, Z-VAD-FMK 0.004 μmol/kg
Text: Quantitative fluorescence intravital lung microscopy (qFILM) was used to assess the absence or presence of platelet-neutrophil aggregate mediated pulmonary vaso-occlusion. Pulmonary microcirculation (pseudo-colored purple), neutrophils (red) and platelets (pseudo-colored green) were labeled in vivo by IV administration of FITC dextran, AF546-anti-Ly6G Ab and V450-anti-CD49b Ab, respectively. […] White arrows denote the direction of blood flow within the pulmonary arterioles. Alveoli are marked with asterisks. Scale bars 20 μm. The diameter of pulmonary arteriole in B-E is ˜22 μm, 32 μm, 31.5 μm, and 31 μm, respectively. […] Refer Online Data Supplement for details. […] The data for mice with SCD IV administered 10 oxy-Hb (n=5 mice; 75 FOVs) are included as black bars in FIGS. 1N and 1O for relative comparison. qFILM FOV size ˜65 536 μm^2. Data represent mean ±SE and are compared using Student t test. *P<0.05 (FIG. 1P) Schematic showing the main findings of the study. The sterile inflammatory milieu (DAMPs, IFN-I signaling, and ROS) in SCD promotes caspase-4 (humans) or caspase-11 (mouse)-dependent cleavage of neutrophil GSDMD into the active form GSDMD-NT, leading to the shedding of NETs in the liver microcirculation. Once shed, these NETs are carried by the blood as cNETs to the lung, where they promote neutrophil-platelet aggregation in the pulmonary arterioles, leading to PVO and lung injury (acute chest syndrome).
Intravital lung microscopy (experimental scheme shown in FIG. 1A) was conducted in live mice to assess whether preventing liver-to-lung embolization of cNETs by inhibiting or deleting GSDMD-signaling leads to amelioration of pulmonary vaso-occlusion. Although large neutrophil-platelet aggregates (marked with dotted ellipses) were seen occluding the arteriolar bottle-necks, leading to impaired blood flow in the lung of SCD mice IV administered 10 μmole/kg oxy-Hb (FIG. 1B), such aggregates were rare in the lung of SCD mice IV administered 10 μmole/kg oxy-Hb with 0.004 μmol/kg pan-caspase inhibitor Z-VAD-FMK (FIG. 1C) or 10 mg/kg GSDMD-NT inhibitor LDC7559 (FIG. 1D) or 20 mg/kg GSDMD-NT inhibitor Necrosulfonamide (FIG. 1E). […] The twofold higher dose of 20 μmole/kg IV oxy-Hb also led to the development of lung vaso-occlusion in WT but not Gsdmd^−/− mice (FIG. 2). […] P-selectin deficiency led to an approximately 50% reduction in pulmonary vaso-occlusion in SCD-Selp^−/− mice administered 10 μmole/kg IV oxy-Hb (FIG. 3), however, IV administration of oxy-Hb with GSDMD-NT inhibitor (LDC7559) led to further threefold (significant) reduction in pulmonary vaso-occlusions per FOV (FIGS. 1N and 4A, and FIG. 5) and absence of large pulmonary vaso-occlusions (area>1000 μm^2) per FOV (FIG. 10) in SCD-Selp^−/− mice.
Quantitative fluorescence intravital lung microscopy (qFILM) has been used widely for in vivo assessment of pulmonary vasoocclusion in mice with SCD [Bennewitz M F et al., (2017); Vats R, Brzoska T, Bennewitz M F, et al. (2020); Vats R, Tutuncuoglu E, Pradhan-Sundd T, Tejero J, Shaw G D, Sundd P. (2020); Bennewitz M F, Tutuncuoglu E, Gudapati S, et al. (2020)] In the current study, qFILM was used to assess pulmonary vaso-occlusion and detect NETs in the intact lung microcirculation of live mice following IV challenge with saline, oxy-hemoglobin (oxy-Hb), hemin, or lipo-polysaccharide with or without pretreatment with N-terminus active domain (GSDMD-NT) inhibitors LDC7559 [Sollberger G, Choidas A, Burn G L, et al. (2018)], NSA [Rathkey J K, Zhao J, Liu Z, et al. (2018)], Disulfiram [Hu J J, Liu X, Xia S, et al. (2020)], or the pan-caspase inhibitor Z-VAD-FMK [Sollberger G, Choidas A, Burn G L, et al. (2018)], haptoglobin [Belcher J D, Chen C, Nguyen J, et al. (2014)], or TLR4-inhibitor (TAK242) [Belcher J D, Chen C, Nguyen J, et al. (2014)]. qFILM was conducted with a Nikon multiphoton excitation fluorescence microscope and an APO LWD 25×water immersion objective with 1.1 NA. […]

[1] = IV 10 μmole/kg oxy-Hb with inhibitor vs oxy-Hb alone, NSA 20 mg/kg
[2] = IV 10 μmole/kg oxy-Hb with inhibitor, NSA 20 mg/kg

COc1ccccc1-c1cc2n(n1)Cc1ccc(NC(C)=O)cc1OC2 [LDC7559]
Number of PVOs per Field of View (#PVOs/FOV) [1]: significantly less; also recorded: significantly reduced
number of large PVOs (with area>1000 μm^2) per FOV [1]: significantly less; also recorded: significantly reduced
blood flow in the lung (rapidly transiting erythrocytes) [2]: significantly improved
lung vaso-occlusion in representative qFILM images [2]: absence of lung vaso-occlusion; also recorded: lack of pulmonary vaso-occlusion
large neutrophil-platelet aggregates occluding the arteriolar bottle-necks in the lung (IV 10 μmole/kg oxy-Hb with inhibitor, Necrosulfonamide 20 mg/kg): rare
